{
  "source": "the supplement of paper PMC10733146",
  "test_in_all_cases": "viability relative to DMSO control (fraction); higher = less drug effect (more viable cells)",
  "settings_in_all_cases": "48 h",
  "key": {"[1]": {"tested_on": "primary T-NHL patient cells (S058)", "method_in_brief": "(§1)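 Cells were incubated for 48 h at 37 °C and 5% CO2 in RPMI-1640 with penicillin/streptomycin, L-glutamine and human serum, at 4 × 10^4 cells per well in 384-well plates with compounds pre-plated at five concentrations, one well each. These were primary mononuclear tumour cells, fresh or cryopreserved, Ficoll-isolated from blood or bone marrow or obtained from processed lymph node. Viability values are CellTiter-Glo luminescence relative to the median of 16 inner DMSO wells.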"}, "[2]": {"tested_on": "primary MCL patient cells (S041)", "method_in_brief": "as §1"}, "[3]": {"tested_on": "primary AML patient cells (S019)", "method_in_brief": "as §1"}, "[4]": {"tested_on": "primary CLL patient cells (S031)", "method_in_brief": "as §1"}, "[5]": {"tested_on": "primary MCL patient cells (S063)", "method_in_brief": "as §1"}, "[6]": {"tested_on": "primary AML patient cells (S006)", "method_in_brief": "as §1"}, "[7]": {"tested_on": "primary DLBCL patient cells (S049)", "method_in_brief": "as §1"}, "[8]": {"tested_on": "primary AML patient cells (S056)", "method_in_brief": "as §1"}, "[9]": {"tested_on": "primary ALL patient cells (S088)", "method_in_brief": "as §1"}, "[10]": {"tested_on": "primary FL patient cells (S087)", "method_in_brief": "as §1"}, "[11]": {"tested_on": "primary AML patient cells (S011)", "method_in_brief": "as §1"}, "[12]": {"tested_on": "primary DLBCL patient cells (S076)", "method_in_brief": "as §1"}, "[13]": {"tested_on": "primary AML patient cells (S079)", "method_in_brief": "as §1"}, "[14]": {"tested_on": "primary AML patient cells (S085)", "method_in_brief": "as §1"}, "[15]": {"tested_on": "primary FL patient cells (S022)", "method_in_brief": "as §1"}, "[16]": {"tested_on": "primary ALL patient cells (S048)", "method_in_brief": "as §1"}, "[17]": {"tested_on": "primary AML patient cells (S012)", "method_in_brief": "as §1"}},
  "data": [
    {"smiles": "CC[C@H](Nc1ncnc2[nH]cnc12)c1nc2cccc(F)c2c(=O)n1-c1ccccc1", "note": "[Idelalisib]", "values": [
      {"measurement": "viability", "setting": "[1]; 0.0032 µM", "value": 0.988},
      {"measurement": "viability", "setting": "[1]; 0.016 µM", "value": 0.916},
      {"measurement": "viability", "setting": "[1]; 0.08 µM", "value": 0.961},
      {"measurement": "viability", "setting": "[1]; 0.4 µM", "value": 1.08},
      {"measurement": "viability", "setting": "[1]; 2 µM", "value": 0.985},
      {"measurement": "viability", "setting": "[2]; 0.0032 µM", "value": 0.949},
      {"measurement": "viability", "setting": "[2]; 0.016 µM", "value": 0.908},
      {"measurement": "viability", "setting": "[2]; 0.08 µM", "value": 0.886},
      {"measurement": "viability", "setting": "[2]; 0.4 µM", "value": 0.893},
      {"measurement": "viability", "setting": "[2]; 2 µM", "value": 0.887},
      {"measurement": "viability", "setting": "[3]; 0.0032 µM", "value": 1.02},
      {"measurement": "viability", "setting": "[3]; 0.016 µM", "value": 0.936},
      {"measurement": "viability", "setting": "[3]; 0.08 µM", "value": 1.01},
      {"measurement": "viability", "setting": "[3]; 0.4 µM", "value": 1.13},
      {"measurement": "viability", "setting": "[3]; 2 µM", "value": 0.996},
      {"measurement": "viability", "setting": "[4]; 0.0032 µM", "value": 0.974},
      {"measurement": "viability", "setting": "[4]; 0.016 µM", "value": 0.861},
      {"measurement": "viability", "setting": "[4]; 0.08 µM", "value": 0.731},
      {"measurement": "viability", "setting": "[4]; 0.4 µM", "value": 0.654},
      {"measurement": "viability", "setting": "[4]; 2 µM", "value": 0.569},
      {"measurement": "viability", "setting": "[5]; 0.0032 µM", "value": 0.918},
      {"measurement": "viability", "setting": "[5]; 0.016 µM", "value": 0.792},
      {"measurement": "viability", "setting": "[5]; 0.08 µM", "value": 0.73},
      {"measurement": "viability", "setting": "[5]; 0.4 µM", "value": 0.693},
      {"measurement": "viability", "setting": "[5]; 2 µM", "value": 0.595},
      {"measurement": "viability", "setting": "[6]; 0.0032 µM", "value": 1.02},
      {"measurement": "viability", "setting": "[6]; 0.016 µM", "value": 0.97},
      {"measurement": "viability", "setting": "[6]; 0.08 µM", "value": 0.943},
      {"measurement": "viability", "setting": "[6]; 0.4 µM", "value": 0.885},
      {"measurement": "viability", "setting": "[6]; 2 µM", "value": 0.882},
      {"measurement": "viability", "setting": "[7]; 0.0032 µM", "value": 1.02},
      {"measurement": "viability", "setting": "[7]; 0.016 µM", "value": 1.02},
      {"measurement": "viability", "setting": "[7]; 0.08 µM", "value": 0.968},
      {"measurement": "viability", "setting": "[7]; 0.4 µM", "value": 1.02},
      {"measurement": "viability", "setting": "[7]; 2 µM", "value": 0.94},
      {"measurement": "viability", "setting": "[8]; 0.0032 µM", "value": 1.02},
      {"measurement": "viability", "setting": "[8]; 0.016 µM", "value": 1.02},
      {"measurement": "viability", "setting": "[8]; 0.08 µM", "value": 0.954},
      {"measurement": "viability", "setting": "[8]; 0.4 µM", "value": 0.896},
      {"measurement": "viability", "setting": "[8]; 2 µM", "value": 0.911},
      {"measurement": "viability", "setting": "[9]; 0.0032 µM", "value": 1.02},
      {"measurement": "viability", "setting": "[9]; 0.016 µM", "value": 0.948},
      {"measurement": "viability", "setting": "[9]; 0.08 µM", "value": 0.895},
      {"measurement": "viability", "setting": "[9]; 0.4 µM", "value": 0.914},
      {"measurement": "viability", "setting": "[9]; 2 µM", "value": 0.831},
      {"measurement": "viability", "setting": "[10]; 0.0032 µM", "value": 0.984},
      {"measurement": "viability", "setting": "[10]; 0.016 µM", "value": 0.923},
      {"measurement": "viability", "setting": "[10]; 0.08 µM", "value": 0.848},
      {"measurement": "viability", "setting": "[10]; 0.4 µM", "value": 0.78},
      {"measurement": "viability", "setting": "[10]; 2 µM", "value": 0.793},
      {"measurement": "viability", "setting": "[11]; 0.0032 µM", "value": 0.968},
      {"measurement": "viability", "setting": "[11]; 0.016 µM", "value": 0.873},
      {"measurement": "viability", "setting": "[11]; 0.08 µM", "value": 0.924},
      {"measurement": "viability", "setting": "[11]; 0.4 µM", "value": 0.88},
      {"measurement": "viability", "setting": "[11]; 2 µM", "value": 0.829},
      {"measurement": "viability", "setting": "[12]; 0.0032 µM", "value": 0.935},
      {"measurement": "viability", "setting": "[12]; 0.016 µM", "value": 0.879},
      {"measurement": "viability", "setting": "[12]; 0.08 µM", "value": 0.825},
      {"measurement": "viability", "setting": "[12]; 0.4 µM", "value": 0.832},
      {"measurement": "viability", "setting": "[12]; 2 µM", "value": 0.735},
      {"measurement": "viability", "setting": "[13]; 0.0032 µM", "value": 1.01},
      {"measurement": "viability", "setting": "[13]; 0.016 µM", "value": 0.954},
      {"measurement": "viability", "setting": "[13]; 0.08 µM", "value": 0.906},
      {"measurement": "viability", "setting": "[13]; 0.4 µM", "value": 0.844},
      {"measurement": "viability", "setting": "[13]; 2 µM", "value": 0.793},
      {"measurement": "viability", "setting": "[14]; 0.0032 µM", "value": 1.04},
      {"measurement": "viability", "setting": "[14]; 0.016 µM", "value": 0.844},
      {"measurement": "viability", "setting": "[14]; 0.08 µM", "value": 0.788},
      {"measurement": "viability", "setting": "[14]; 0.4 µM", "value": 0.82},
      {"measurement": "viability", "setting": "[14]; 2 µM", "value": 0.755},
      {"measurement": "viability", "setting": "[15]; 0.0032 µM", "value": 1.05},
      {"measurement": "viability", "setting": "[15]; 0.016 µM", "value": 1.09},
      {"measurement": "viability", "setting": "[15]; 0.08 µM", "value": 0.955},
      {"measurement": "viability", "setting": "[15]; 0.4 µM", "value": 0.939},
      {"measurement": "viability", "setting": "[15]; 2 µM", "value": 0.929},
      {"measurement": "viability", "setting": "[16]; 0.0032 µM", "value": 1.01},
      {"measurement": "viability", "setting": "[16]; 0.016 µM", "value": 0.934},
      {"measurement": "viability", "setting": "[16]; 0.08 µM", "value": 0.861},
      {"measurement": "viability", "setting": "[16]; 0.4 µM", "value": 0.751},
      {"measurement": "viability", "setting": "[16]; 2 µM", "value": 0.752},
      {"measurement": "viability", "setting": "[17]; 0.0032 µM", "value": 1.02},
      {"measurement": "viability", "setting": "[17]; 0.016 µM", "value": 0.982},
      {"measurement": "viability", "setting": "[17]; 0.08 µM", "value": 1.18},
      {"measurement": "viability", "setting": "[17]; 0.4 µM", "value": 1.04},
      {"measurement": "viability", "setting": "[17]; 2 µM", "value": 1.06}
    ]}
  ]
}
